According to PubChem BioAssay AID248 (DTP/NCI, 2004):
Where “and” joins values, the source holds several entries; their conditions need not be identical. Identical values can stand only once. Toxic doses and inconclusive results are not listed. Cut-off read from the data, not from the text of the source: active = T/C of 150% or more; inactive = T/C below 125%.

Test system: L1210 leukemia ip in BDF1 mice, survival T/C
Assay: NCI In Vivo Anticancer Drug Screen. Data for tumor model L1210 Leukemia (intraperitoneal) in B6D2F1 (BDF1) mice
Settings: higher = longer survival
Method in brief: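 Transplantable tumor model; survival measured in treated vs vehicle control mice. Value = treated/control.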

[1] = endpoint: mean survival time, dose: 50.0 mg/kg/injection, schedule: Q01DX009 (ip), vehicle: Klucel (hydroxypropylcellulose) (HPC)
[2] = endpoint: mean survival time, dose: 100.0 mg/kg/injection, schedule: Q01DX009 (ip), vehicle: Klucel (hydroxypropylcellulose) (HPC)
[3] = endpoint: mean survival time, dose: 100.0 mg/kg/injection, schedule: Q04DX003 (ip), vehicle: Klucel (hydroxypropylcellulose) (HPC)
[4] = endpoint: mean survival time, dose: 200.0 mg/kg/injection, schedule: Q04DX003 (ip), vehicle: Klucel (hydroxypropylcellulose) (HPC)
[5] = endpoint: mean survival time, dose: 100.0 mg/kg/injection, schedule: Q01DX009 (ip), vehicle: saline with Tween-80
[6] = endpoint: mean survival time, dose: 200.0 mg/kg/injection, schedule: Q01DX009 (ip), vehicle: saline with Tween-80

Measured: T/C

CO[C@H]1/C=C/O[C@@]2(C)Oc3c(C)c(O)c4c(O)c(c(/C=N/N5C(C)CN(Cc6ccccc6)CC5C)c(O)c4c3C2=O)NC(=O)/C(C)=C\C=C\[C@H](C)[C@H](O)[C@@H](C)[C@@H](O)[C@@H](C)[C@H](OC(C)=O)[C@@H]1C (some centres not stated)
inactive: endpoint: mean survival time, dose: 12.5 mg/kg/injection, schedule: Q02DX Z (oral), vehicle: Klucel (hydroxypropylcellulose) (HPC) 100 % of control | endpoint: mean survival time, dose: 25.0 mg/kg/injection, schedule: Q02DX Z (oral), vehicle: Klucel (hydroxypropylcellulose) (HPC) 95 % of control and 98 % of control | [1] 97 % of control | endpoint: mean survival time, dose: 50.0 mg/kg/injection, schedule: Q02DX Z (oral), vehicle: Klucel (hydroxypropylcellulose) (HPC) 93 % of control and 96 % of control | [2] 101 % of control | endpoint: mean survival time, dose: 100.0 mg/kg/injection, schedule: Q02DX Z (oral), vehicle: Klucel (hydroxypropylcellulose) (HPC) 100 % of control and 106 % of control | [3] 97 % of control | endpoint: mean survival time, dose: 200.0 mg/kg/injection, schedule: Q01DX009 (ip), vehicle: Klucel (hydroxypropylcellulose) (HPC) 100 % of control | endpoint: mean survival time, dose: 200.0 mg/kg/injection, schedule: Q02DX Z (oral), vehicle: Klucel (hydroxypropylcellulose) (HPC) 96 % of control and 98 % of control | [4] 95 % of control | endpoint: mean survival time, dose: 400.0 mg/kg/injection, schedule: Q02DX Z (oral), vehicle: Klucel (hydroxypropylcellulose) (HPC) 107 % of control and 91 % of control | endpoint: mean survival time, dose: 400.0 mg/kg/injection, schedule: Q04DX003 (ip), vehicle: Klucel (hydroxypropylcellulose) (HPC) 103 % of control | endpoint: mean survival time, dose: 800.0 mg/kg/injection, schedule: Q02DX Z (oral), vehicle: Klucel (hydroxypropylcellulose) (HPC) 101 % of control and 104 % of control | endpoint: mean survival time, dose: 1600.0 mg/kg/injection, schedule: Q02DX Z (oral), vehicle: Klucel (hydroxypropylcellulose) (HPC) 95 % of control and 89 % of control | endpoint: median survival time, dose: 6.25 mg/kg/injection, schedule: Q01DX005 (ip), vehicle: other 106 % of control | endpoint: median survival time, dose: 12.5 mg/kg/injection, schedule: Q01DX005 (ip), vehicle: Klucel (hydroxypropylcellulose) (HPC) 110 % of control | endpoint: median survival time, dose: 12.5 mg/kg/injection, schedule: Q01DX005 (ip), vehicle: other 107 % of control | endpoint: median survival time, dose: 12.5 mg/kg/injection, schedule: Q01DX005 (oral), vehicle: other 117 % of control | endpoint: median survival time, dose: 25.0 mg/kg/injection, schedule: Q01DX005 (ip), vehicle: Klucel (hydroxypropylcellulose) (HPC) 101 % of control | endpoint: median survival time, dose: 25.0 mg/kg/injection, schedule: Q01DX005 (ip), vehicle: other 111 % of control | endpoint: median survival time, dose: 25.0 mg/kg/injection, schedule: Q01DX005 (oral), vehicle: Klucel (hydroxypropylcellulose) (HPC) 117 % of control | endpoint: median survival time, dose: 25.0 mg/kg/injection, schedule: Q01DX005 (oral), vehicle: other 114 % of control and 119 % of control | endpoint: median survival time, dose: 25.0 mg/kg/injection, schedule: Q02DX005 (oral), vehicle: other 104 % of control | endpoint: median survival time, dose: 50.0 mg/kg/injection, schedule: Q01DX005 (ip), vehicle: Klucel (hydroxypropylcellulose) (HPC) 97 % of control | endpoint: median survival time, dose: 50.0 mg/kg/injection, schedule: Q01DX005 (ip), vehicle: other 117 % of control | endpoint: median survival time, dose: 50.0 mg/kg/injection, schedule: Q01DX005 (oral), vehicle: Klucel (hydroxypropylcellulose) (HPC) 114 % of control | endpoint: median survival time, dose: 50.0 mg/kg/injection, schedule: Q01DX005 (oral), vehicle: other 93 % of control and 111 % of control | endpoint: median survival time, dose: 50.0 mg/kg/injection, schedule: Q02DX005 (oral), vehicle: other 104 % of control | endpoint: median survival time, dose: 100.0 mg/kg/injection, schedule: Q01DX005 (ip), vehicle: Klucel (hydroxypropylcellulose) (HPC) 106 % of control | endpoint: median survival time, dose: 100.0 mg/kg/injection, schedule: Q01DX005 (ip), vehicle: other 103 % of control | endpoint: median survival time, dose: 100.0 mg/kg/injection, schedule: Q01DX005 (oral), vehicle: Klucel (hydroxypropylcellulose) (HPC) 114 % of control | endpoint: median survival time, dose: 100.0 mg/kg/injection, schedule: Q01DX005 (oral), vehicle: other 93 % of control and 107 % of control | endpoint: median survival time, dose: 100.0 mg/kg/injection, schedule: Q02DX005 (oral), vehicle: other 104 % of control | endpoint: median survival time, dose: 200.0 mg/kg/injection, schedule: Q01DX005 (ip), vehicle: Klucel (hydroxypropylcellulose) (HPC) 92 % of control | endpoint: median survival time, dose: 200.0 mg/kg/injection, schedule: Q01DX005 (oral), vehicle: Klucel (hydroxypropylcellulose) (HPC) 94 % of control and 117 % of control | endpoint: median survival time, dose: 200.0 mg/kg/injection, schedule: Q01DX005 (oral), vehicle: other 98 % of control and 111 % of control | endpoint: median survival time, dose: 200.0 mg/kg/injection, schedule: Q02DX005 (oral), vehicle: Klucel (hydroxypropylcellulose) (HPC) 100 % of control | endpoint: median survival time, dose: 200.0 mg/kg/injection, schedule: Q02DX005 (oral), vehicle: other 119 % of control | endpoint: median survival time, dose: 400.0 mg/kg/injection, schedule: Q01DX005 (ip), vehicle: Klucel (hydroxypropylcellulose) (HPC) 102 % of control | endpoint: median survival time, dose: 400.0 mg/kg/injection, schedule: Q01DX005 (oral), vehicle: Klucel (hydroxypropylcellulose) (HPC) 104 % of control and 114 % of control | endpoint: median survival time, dose: 400.0 mg/kg/injection, schedule: Q02DX005 (oral), vehicle: Klucel (hydroxypropylcellulose) (HPC) 101 % of control | endpoint: median survival time, dose: 800.0 mg/kg/injection, schedule: Q01DX005 (ip), vehicle: Klucel (hydroxypropylcellulose) (HPC) 104 % of control | endpoint: median survival time, dose: 800.0 mg/kg/injection, schedule: Q01DX005 (oral), vehicle: Klucel (hydroxypropylcellulose) (HPC) 101 % of control | endpoint: median survival time, dose: 800.0 mg/kg/injection, schedule: Q02DX005 (oral), vehicle: Klucel (hydroxypropylcellulose) (HPC) 104 % of control | endpoint: median survival time, dose: 1600.0 mg/kg/injection, schedule: Q01DX005 (oral), vehicle: Klucel (hydroxypropylcellulose) (HPC) 104 % of control and 114 % of control | endpoint: median survival time, dose: 1600.0 mg/kg/injection, schedule: Q02DX005 (oral), vehicle: Klucel (hydroxypropylcellulose) (HPC) 119 % of control

O=C(O)C(Cl)C(Cl)c1ccccc1 (configuration not stated)
inactive: endpoint: mean survival time, dose: 75.0 mg/kg/injection, schedule: Q01DX001 (ip), vehicle: saline 98 % of control | endpoint: mean survival time, dose: 150.0 mg/kg/injection, schedule: Q01DX001 (ip), vehicle: saline 98 % of control | endpoint: mean survival time, dose: 300.0 mg/kg/injection, schedule: Q01DX001 (ip), vehicle: saline 101 % of control

CCOC(=O)C(C)(C)C(O)C(C)C (configuration not stated)
inactive: [5] 106 % of control | [6] 103 % of control | endpoint: mean survival time, dose: 400.0 mg/kg/injection, schedule: Q01DX009 (ip), vehicle: saline with Tween-80 93 % of control

CC(C)(Br)C1CC(=O)C(C)(Br)C(Br)C1 (configuration not stated)
inactive: endpoint: mean survival time, dose: 100.0 mg/kg/injection, schedule: Q01DX001 (ip), vehicle: saline 98 % of control | endpoint: mean survival time, dose: 200.0 mg/kg/injection, schedule: Q01DX001 (ip), vehicle: saline 101 % of control | endpoint: mean survival time, dose: 400.0 mg/kg/injection, schedule: Q01DX001 (ip), vehicle: saline 101 % of control

O=S(=O)(c1ccccc1)n1ccc2ccccc21
inactive: endpoint: mean survival time, dose: 100.0 mg/kg/injection, schedule: Q04DX002 (ip), vehicle: saline with Tween-80 93 % of control | endpoint: mean survival time, dose: 200.0 mg/kg/injection, schedule: Q04DX002 (ip), vehicle: saline with Tween-80 97 % of control | endpoint: mean survival time, dose: 400.0 mg/kg/injection, schedule: Q04DX002 (ip), vehicle: saline with Tween-80 97 % of control

CN(C)c1ccc(/C=C/c2ccc([N+](=O)[O-])cc2[N+](=O)[O-])c(Cl)c1
inactive: endpoint: mean survival time, dose: 50.0 mg/kg/injection, schedule: Q01DX009 (ip), vehicle: saline with Tween-80 88 % of control | [5] 100 % of control | [6] 91 % of control

O=C(NOCCCl)Nc1ccccc1
inactive: endpoint: mean survival time, dose: 125.0 mg/kg/injection, schedule: Q01DX Z (ip), vehicle: carboxymethylcellulose (CMC) 96 % of control | endpoint: mean survival time, dose: 200.0 mg/kg/injection, schedule: Q01DX Z (ip), vehicle: carboxymethylcellulose (CMC) 96 % of control | endpoint: mean survival time, dose: 250.0 mg/kg/injection, schedule: Q01DX Z (ip), vehicle: carboxymethylcellulose (CMC) 107 % of control | endpoint: mean survival time, dose: 500.0 mg/kg/injection, schedule: Q01DX Z (ip), vehicle: carboxymethylcellulose (CMC) 95 % of control

CC(CO)(NC(=O)OCc1ccccc1)C(=O)O (configuration not stated)
inactive: endpoint: mean survival time, dose: 100.0 mg/kg/injection, schedule: Q01DX009 (ip), vehicle: acetone 94 % of control | endpoint: mean survival time, dose: 200.0 mg/kg/injection, schedule: Q01DX009 (ip), vehicle: acetone 92 % of control | endpoint: mean survival time, dose: 400.0 mg/kg/injection, schedule: Q01DX009 (ip), vehicle: acetone 92 % of control

O=C[CH2][Hg][Cl]
inactive: endpoint: mean survival time, dose: 0.78 mg/kg/injection, schedule: Q01DX009 (ip), vehicle: saline with Tween-80 96 % of control | endpoint: mean survival time, dose: 1.56 mg/kg/injection, schedule: Q01DX009 (ip), vehicle: saline with Tween-80 96 % of control | endpoint: mean survival time, dose: 3.13 mg/kg/injection, schedule: Q01DX009 (ip), vehicle: saline with Tween-80 93 % of control

OC1CNCCc2ccccc21 (configuration not stated)
inactive: endpoint: mean survival time, dose: 25.0 mg/kg/injection, schedule: Q01DX009 (ip), vehicle: Klucel (hydroxypropylcellulose) (HPC) 102 % of control | [1] 103 % of control | [2] 94 % of control | [3] 92 % of control | [4] 88 % of control

CN(C)CCCNCC(Cc1ccccc1)c1ccccc1 (configuration not stated)
inactive: endpoint: mean survival time, dose: 100.0 mg/kg/injection, schedule: Q04DX002 (ip), vehicle: saline 93 % of control
